From US12167995B2, “[((1R,2S,5R)-2-isopropyl-5-methyl-cyclohexanecarbonyl)-amino]-acetic acid isopropyl ester for treatment of chronic cough” (AXALBION SA, priority 2019, dated 2024)
“Also recorded” adds a separate entry of the source.

Columns and labels:
human TRPM8 = target: T1, human TRPM8 (Homo sapiens, UniProt Q7Z2W7); assay: FLIPR calcium assay on cloned human TRPM8 channels expressed in CHO cells; type: cell-based
T1 construct: host or cells: CHO cells
Experimental: AX-8 potency was assessed using Fluorescence Imaging Plate Reader (FLIPR®) assays (study performed by ChanTest/Charles River). The in vitro effects were evaluated on cloned human TRPM8 channels expressed in CHO cells using a Fluo-8 calcium kit and a Fluorescence Imaging Plate Reader ([…]™) instrument. Changes is fluorescence intensity, reflecting the calcium flux through hTRPM8, were measured and the area under the signals (area under the curve, AUC) calculated and expressed in relative light units. Changes induced by the vehicle (HEPES-buffered physiological saline solution, HB-PS) were subtracted.

hTRPV1 = target: T2, hTRPV1 (Homo sapiens, UniProt Q8NER1); assay: FLIPR calcium assay, selectivity against hTRPV1 (expressed in HEK-293); type: cell-based
T2 construct: expressed in transfected cells; host or cells: HEK-293
T2 sequence (Q8NER1 whole entry): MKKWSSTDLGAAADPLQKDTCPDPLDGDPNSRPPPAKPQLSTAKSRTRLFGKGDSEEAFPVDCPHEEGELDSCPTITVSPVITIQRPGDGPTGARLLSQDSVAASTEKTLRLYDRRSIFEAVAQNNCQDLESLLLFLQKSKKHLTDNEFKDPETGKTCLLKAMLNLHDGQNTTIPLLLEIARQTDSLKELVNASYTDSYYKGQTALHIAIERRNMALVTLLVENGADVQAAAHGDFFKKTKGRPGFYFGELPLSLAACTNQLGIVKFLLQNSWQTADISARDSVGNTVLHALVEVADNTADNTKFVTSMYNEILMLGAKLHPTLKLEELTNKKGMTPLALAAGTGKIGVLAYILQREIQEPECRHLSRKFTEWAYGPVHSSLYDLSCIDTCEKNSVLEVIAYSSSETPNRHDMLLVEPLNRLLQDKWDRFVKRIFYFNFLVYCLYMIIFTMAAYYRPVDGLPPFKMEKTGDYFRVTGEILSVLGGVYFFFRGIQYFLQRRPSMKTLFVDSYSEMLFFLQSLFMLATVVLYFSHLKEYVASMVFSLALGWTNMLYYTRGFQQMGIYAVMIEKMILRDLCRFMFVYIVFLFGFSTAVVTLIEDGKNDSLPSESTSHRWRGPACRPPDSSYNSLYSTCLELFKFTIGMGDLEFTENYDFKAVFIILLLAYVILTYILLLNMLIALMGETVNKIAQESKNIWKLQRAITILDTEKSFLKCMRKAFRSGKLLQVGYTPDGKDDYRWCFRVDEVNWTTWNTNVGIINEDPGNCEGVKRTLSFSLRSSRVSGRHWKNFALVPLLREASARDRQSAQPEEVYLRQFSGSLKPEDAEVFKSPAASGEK
Experimental: Similarly, selectivity against hTRPA1 (expressed in CHO) and hTRPV1 (expressed in HEK-293) was assessed using FLIPR® calcium assay (at 100 μM, i.e., 10-fold more than the concentration for maximal response; see FIG. 12). […] For the agonist effect assessment, the effect of AX-8 was evaluated in the absence of the positive control agonist. The maximal signal elicited in the presence of the respective agonist (300 μM mustard oil for TRPA1; 3 μM capsaicin for TRPV1) was set to 100% activation and the signal in the presence of the vehicle control (HB-PS) was set to 0% activation. For the antagonist effect assessment, the channels were activated with the respective positive control agonist (100 μM mustard oil for TRPA1; 0.1 μM capsaicin for TRPV1). The effects of AX-8 to inhibit the signal was examined after agonist stimulation and compared to the respective positive control antagonist (3 μM ruthenium red). For each channel, the signal elicited in the presence of the respective positive control agonist was set to 100 (0% inhibition) and the signal in the presence of the respective positive control antagonist was set to 0 (100% inhibition).

[1] = system: refractory chronic cough (RCC); assay: Clinical Trial 2: objective cough frequency (VitaloJAK 24-hour recording) in RCC patients; type: in vivo, human; set-up: Cough frequency, Ln Mean (SE), Treatment, 8 hours (GEE) / Cough frequency, Ln Mean (SE), Treatment, 4 hours (GEE) / Cough frequency, Ln Mean (SE), Treatment, 24 hours (GEE): unit not given here
Experimental: The primary objective of the study was to assess the effectiveness of AX-8 (the study drug) for the treatment of RCC and associated upper airway symptoms after one dose of treatment (an orally disintegrating tablet (ODT) having 5 mg AX-8, administered orally and dissolved on the tongue) in reducing awake cough frequency compared to baseline, for the purpose of planning a future randomized controlled trial. Subjects took a single orally disintegrating tablet (ODT) with 5 mg AX-8 in the morning on the first day of the treatment period (Day 1). This Investigational Medical Product (IMP) was let to dissolve on the tongue. […] Objective cough frequency was measured as 24-hour sound recordings using a custom-built digital recording device (VitaloJAK, Vitalograph, Ltd). VitaloJAK™ is a semi-automated 24-hour ambulatory cough monitoring system (Vitalograph; Buckinghamshire, England) operating in a manner which completely replicates routine practice. The 24-hour recordings are compressed using custom designed compression software, using an algorithm. The VitaloJAK™ is a reliable, robust and efficient tool for the objective measurement of cough frequency. Importantly it reduces 24-hour recordings by up to 98% whilst preserving close to 100% of recorded cough sounds. It is worn like a Holter monitor, with a single sensor affixed to the patient's chest wall. An optional second channel via a conventional microphone (worn, for example, on the patient's shirt) allows quality assurance with human intervention. The device itself is attached on the trousers, skirt, etc. The 24-hour cough frequency (coughs per hour) for a specified visit was calculated as: 24-hour cough frequency=(total number of cough events during the monitoring period (24-hour interval))/24. Awake cough frequency=(total number of cough events during the monitoring period (24-hour interval) while the subject was awake)/(total duration (in hours) during the monitoring period (24-hour interval) that the subject was awake). Percent change in awake cough frequency=[(Change from baseline in awake cough frequency×100)/(Baseline awake cough frequency)]. The proportion of participants with ≥30% of reduction from baseline in awake cough frequency is the number of participants with ≤−30% change in awake cough frequency divided by the total number of participants with available data. For awake and asleep cough frequencies, baseline and treatment data were compared using Wilcoxon signed rank test due to the skewed nature of the data. For 24 hour-, 8 hour-, and 4 hour-cough frequencies, baseline and treatment data were compared using General Estimating Equations (GEE) models. Prior to analysis, these cough count data were natural log (Ln) transformed in order to normalise the distribution of the data. As some individual hourly cough counts were zero, 0.1 was added to all values prior to transformation.

[2] = Clinical Trial 2: safety and tolerability in RCC patients; type: in vivo, human; details: single 5 mg ODT
Description: Safety assessments consisted of monitoring and recording protocol-defined adverse events (AEs) and serious adverse events (SAEs); vital signs; physical examinations; clinical laboratory assessments; electrocardiograms (ECGs); and other protocol-specified tests that were deemed critical to the safety evaluation of the study drug.

[3] = single 5 mg AX-8 ODT, treatment vs baseline

T1 sequence (Q7Z2W7 whole entry): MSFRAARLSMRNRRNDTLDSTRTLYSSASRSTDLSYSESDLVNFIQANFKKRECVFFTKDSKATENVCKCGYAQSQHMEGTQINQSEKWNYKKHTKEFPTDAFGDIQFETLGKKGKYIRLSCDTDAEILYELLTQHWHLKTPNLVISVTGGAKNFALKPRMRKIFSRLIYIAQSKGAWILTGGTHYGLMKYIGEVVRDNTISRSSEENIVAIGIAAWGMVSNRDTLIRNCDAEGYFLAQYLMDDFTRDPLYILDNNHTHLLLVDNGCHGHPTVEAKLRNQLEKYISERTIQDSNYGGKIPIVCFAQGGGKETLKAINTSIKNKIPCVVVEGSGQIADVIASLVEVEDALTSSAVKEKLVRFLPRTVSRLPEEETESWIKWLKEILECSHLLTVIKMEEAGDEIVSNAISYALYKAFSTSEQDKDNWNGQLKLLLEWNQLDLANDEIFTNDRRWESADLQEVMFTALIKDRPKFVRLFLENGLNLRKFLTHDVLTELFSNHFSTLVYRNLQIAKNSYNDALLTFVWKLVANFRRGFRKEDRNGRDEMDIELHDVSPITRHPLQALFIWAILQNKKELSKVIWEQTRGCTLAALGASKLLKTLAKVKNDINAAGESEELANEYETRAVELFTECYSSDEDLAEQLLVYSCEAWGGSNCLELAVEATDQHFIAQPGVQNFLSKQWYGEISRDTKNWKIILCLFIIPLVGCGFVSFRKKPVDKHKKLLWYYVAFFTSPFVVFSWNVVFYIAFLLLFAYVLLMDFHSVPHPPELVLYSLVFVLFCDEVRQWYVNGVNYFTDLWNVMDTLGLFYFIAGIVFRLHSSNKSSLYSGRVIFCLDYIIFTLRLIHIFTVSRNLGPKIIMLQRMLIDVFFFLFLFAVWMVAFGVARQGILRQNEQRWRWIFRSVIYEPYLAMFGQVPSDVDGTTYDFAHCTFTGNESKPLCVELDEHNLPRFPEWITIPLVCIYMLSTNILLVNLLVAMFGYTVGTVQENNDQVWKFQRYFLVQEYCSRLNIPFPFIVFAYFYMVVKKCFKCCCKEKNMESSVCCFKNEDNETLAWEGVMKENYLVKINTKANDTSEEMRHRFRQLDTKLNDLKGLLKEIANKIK

CC(C)OC(=O)CNC(=O)[C@@H]1C[C@H](C)CC[C@H]1C(C)C [AX-8, [((1R,2S,5R)-2-isopropyl-5-methyl-cyclohexanecarbonyl)-amino]-acetic acid isopropyl ester]
EC50 (human TRPM8; calcium signal AUC, Fluo-8, n=8, read-out: half-maximal response concentration (EC50), activation of human TRPM8): 390 nM
potency as TRPM8 agonist relative to menthol (human TRPM8; ratio of EC50 values): ~6 times
antagonistic interaction with TRPV1 (hTRPV1; at 100 μM, channel activated with 0.1 μM capsaicin, control antagonist 3 μM ruthenium red): no agonistic or antagonistic interactions
agonistic activity on hTRPV1 (hTRPV1; concentrations ≤100 μM, % of capsaicin maximal response, n=4): no agonistic or antagonistic interactions; also recorded: no agonistic activity on hTRPV1
subjects with ≥30% reduction in 24-hour cough frequency per hour ([1]; 4/12 subjects): 33.3%
subjects with ≥30% reduction in awake cough frequency per hour ([1]; 4/12 subjects): 33.3%
subjects with ≥30% reduction in 4-hour cough frequency per hour ([1]; 5/12 subjects): 41.7%
subjects with ≥30% reduction in 8-hour cough frequency per hour ([1]; 7/12 subjects): 58.3%
Treatment ratio, 24 hours (GEE) ([1]; 95% CI −0.53 to 0.20, p=0.368): −0.166
reduction in cough frequency during sleep ([1]; from 7.1 to 3.7, may not be statistically significant): 48%
reduction in cough frequency during waking hours ([1]; from 64.1 to 54.8): 14.5%
Cough frequency, Ln Mean (SE), Treatment, 24 hours (GEE) ([1]; natural log transformed, 0.1 added, baseline 2.87 (0.19)): 2.70 (0.33)
Cough frequency, Ln Mean (SE), Treatment, 8 hours (GEE) ([1]; natural log transformed, 0.1 added, baseline 3.72 (0.22)): 3.26 (0.39)
Cough frequency, Ln Mean (SE), Treatment, 4 hours (GEE) ([1]; natural log transformed, 0.1 added, baseline 3.92 (0.19)): 3.38 (0.39)
Treatment ratio (95% CI), 8 hours (GEE) ([1]; p=0.033): −0.461 (−0.88 to −0.04)
Treatment ratio (95% CI), 4 hours (GEE) ([1]; p=0.047): −0.54 (−1.08 to −0.01)
Cough frequency, Median, Treatment, Asleep ([1]; single 5 mg AX-8 ODT, n=12, baseline 7.1, p=0.272 Wilcoxon): 3.7 (0.6-17.5) coughs/hour
Cough frequency, Median, Treatment, 24 hours ([1]; single 5 mg AX-8 ODT, n=12, baseline 48.1): 44.3 coughs/hour
Cough frequency, Median, Treatment, Awake ([1]; single 5 mg AX-8 ODT, n=12, baseline 64.1, p=0.034 Wilcoxon): 54.8 (16.4-79.5) coughs/hour
Cough frequency, Median, Treatment, 4 hours ([1]; single 5 mg AX-8 ODT, n=12, baseline 71.0): 53.4 coughs/hour
Cough frequency, Median, Treatment, 8 hours ([1]; single 5 mg AX-8 ODT, n=12, baseline 75.5): 45.4 coughs/hour
Cough frequency, Change of median, 4 hours [1, 3]: −24.8%
Cough frequency, Change of median, 8 hours [1, 3]: −39.9%
Cough frequency, Change of median, 24 hours [1, 3]: −7.90%
Cough frequency, Change of median, Asleep [1, 3]: −47.9%
Cough frequency, Change of median, Awake [1, 3]: −14.5%
Percentage Change, 8 hours (GEE) ([1]; treatment vs baseline, p=0.033): −36.9%
Percentage Change, 4 hours (GEE) ([1]; treatment vs baseline, p=0.047): −42.0%
Percentage Change, 24 hours (GEE) ([1]; treatment vs baseline, p=0.368): −15.3%
compound-related adverse effects [2]: No compound-related adverse effects were observed
